Type in all cases: in vivo
In one assay the test system is Heliothis virescens. Kind of assay: Heliothis virescens (Tobacco Budworm) egg test on artificial diet. The conditions noted are these: 96 h, 200 ppm (concentration in well 18 ppm), eggs 0-24 h old on artificial diet, 4 days, egg mortality, larval mortality, growth regulation.
The test system of the next assay is Spodoptera littoralis. Kind of assay: Spodoptera littoralis (Egyptian Cotton Leafworm) cotton leaf disc spray test. The conditions noted are these: foliar, 72 h, 200 ppm spray on cotton leaf discs, L1 larvae, mortality, feeding behavior, growth regulation 3 DAT.
Another assay has as its system Plutella xylostella. Description: Plutella xylostella (Diamond Back Moth) artificial diet MTP test. The conditions noted are these: 144 h, 200 ppm (concentration in well 18 ppm), L2 larvae, 6 days, larval mortality, growth regulation.

As for `COc1c(NC(=O)c2ncccc2C(F)(F)F)cccc1C(=O)Nc1c(Cl)cc(C(F)(C(F)(F)F)C(F)(F)C(F)(F)F)cc1Br` (stereo not shown) [B188], the pest or weed control at 200 ppm in the assay on Heliothis virescens and in the assay with Spodoptera littoralis was at least 80% each time.
On to `COc1c(NC(=O)c2csc(Cl)c2OC)cccc1C(=O)Nc1c(Cl)cc(C(F)(C(F)(F)F)C(F)(F)C(F)(F)F)cc1Br` (stereo not shown) [B147], for which the pest or weed control at 200 ppm in the assay on Spodoptera littoralis is at least 80%.
`COc1ccccc1C(=O)Nc1cccc(C(=O)Nc2c(Cl)cc(C(F)(C(F)(F)F)C(F)(F)C(F)(F)F)cc2Br)c1OC` (stereo not shown) [B17]: the pest or weed control at 200 ppm in the assay with Heliothis virescens and with Spodoptera littoralis was at least 80% each time.
As for `COc1c(NC(=O)c2cc(Cl)ccc2F)cccc1C(=O)Nc1c(Cl)cc(C(F)(C(F)(F)F)C(F)(F)C(F)(F)F)cc1Br` (stereo not shown) [B10], the pest or weed control at 200 ppm in the assay with Plutella xylostella, in the assay with Heliothis virescens and in the assay on Spodoptera littoralis was at least 80% each time.
As to `COc1c(NC(=O)c2ccccc2OC(F)(F)F)cccc1C(=O)Nc1c(Cl)cc(C(F)(C(F)(F)F)C(F)(F)C(F)(F)F)cc1Br` (stereo not shown) [B16], the pest or weed control at 200 ppm in the assay with Plutella xylostella and in the assay on Spodoptera littoralis was at least 80% each time.
As for `COc1c(NC(=O)c2ccccc2C)cccc1C(=O)Nc1c(C)cc(C(F)(C(F)(F)F)C(F)(F)C(F)(F)F)cc1C` (stereo not shown) [F2], the pest or weed control at 200 ppm in the assay on Plutella xylostella, in the assay with Heliothis virescens and in the assay with Spodoptera littoralis was at least 80% throughout.
For `COc1c(NC(=O)c2ccccc2OC(F)(F)F)cccc1C(=O)Nc1c(Cl)cc(C(F)(C(F)(F)F)C(F)(F)F)cc1Cl` [E14], the pest or weed control at 200 ppm in the assay on Plutella xylostella, in the assay on Heliothis virescens and in the assay on Spodoptera littoralis was at least 80% each time.
`COc1c(NC(=O)c2cc(Cl)cc(Cl)c2O)cccc1C(=O)Nc1c(Cl)cc(C(F)(C(F)(F)F)C(F)(F)C(F)(F)F)cc1Br` (stereo not shown) [B160] yielded a pest or weed control at 200 ppm in the assay on Plutella xylostella of at least 80%.
Take `COc1c(NC(=O)c2sccc2C)cccc1C(=O)Nc1c(Cl)cc(C(F)(C(F)(F)F)C(F)(F)C(F)(F)F)cc1Br` (stereo not shown) [B88]: the pest or weed control at 200 ppm in the assay on Plutella xylostella, in the assay with Heliothis virescens and in the assay with Spodoptera littoralis was at least 80% each time.
Turning to `COc1c(NC(=O)c2cc(Cl)cc(I)c2)cccc1C(=O)Nc1c(Cl)cc(C(F)(C(F)(F)F)C(F)(F)C(F)(F)F)cc1Br` (stereo not shown) [B68], the pest or weed control at 200 ppm in the assay on Heliothis virescens and in the assay with Spodoptera littoralis was at least 80% in each case.
For `COc1c(NC(=O)c2cc(Cl)cc(C(F)(F)F)c2)cccc1C(=O)Nc1c(Cl)cc(C(F)(C(F)(F)F)C(F)(F)C(F)(F)F)cc1Br` (stereo not shown) [B70], the pest or weed control at 200 ppm in the assay with Heliothis virescens and with Spodoptera littoralis was at least 80% each time.
Take `COc1c(NC(=O)c2csnn2)cccc1C(=O)Nc1c(Cl)cc(C(F)(C(F)(F)F)C(F)(F)C(F)(F)F)cc1Br` (stereo not shown) [B39]: the pest or weed control at 200 ppm in the assay with Plutella xylostella, in the assay with Heliothis virescens and in the assay on Spodoptera littoralis was at least 80% in each case.
On to `COc1c(NC(=O)c2ccc(C)cc2Cl)cccc1C(=O)Nc1c(Cl)cc(C(F)(C(F)(F)F)C(F)(F)C(F)(F)F)cc1Br` (stereo not shown) [B182], for which the pest or weed control at 200 ppm in the assay with Plutella xylostella, in the assay with Heliothis virescens and with Spodoptera littoralis was at least 80% each time.
For `COc1ccccc1C(=O)Nc1cccc(C(=O)Nc2c(Cl)cc(C(F)(C(F)(F)F)C(F)(F)C(F)(F)F)cc2Cl)c1OC` (stereo not shown) [C17], in the assay on Heliothis virescens, the pest or weed control at 200 ppm was at least 80%.
Regarding `COc1c(NC(=O)c2ccc(-c3csnn3)cc2)cccc1C(=O)Nc1c(Cl)cc(C(F)(C(F)(F)F)C(F)(F)C(F)(F)F)cc1Br` (stereo not shown) [B31], the pest or weed control at 200 ppm in the assay with Plutella xylostella, in the assay on Heliothis virescens and in the assay on Spodoptera littoralis was at least 80% in each case.
Consider `COc1c(NC(=O)c2ccc(F)c([N+](=O)[O-])c2)cccc1C(=O)Nc1c(Cl)cc(C(F)(C(F)(F)F)C(F)(F)C(F)(F)F)cc1Br` (stereo not shown) [B77], for which the pest or weed control at 200 ppm with Plutella xylostella, in the assay on Heliothis virescens and with Spodoptera littoralis was at least 80% throughout.
Turning to `COc1c(NC(=O)c2ccc(Cl)cc2F)cccc1C(=O)Nc1c(C)cc(C(F)(C(F)(F)F)C(F)(F)C(F)(F)F)cc1C` (stereo not shown) [F13], the pest or weed control at 200 ppm in the assay on Heliothis virescens and in the assay with Spodoptera littoralis was at least 80% each time.
For the compound `COc1c(NC(=O)c2ncc(C(F)(F)F)cc2Cl)cccc1C(=O)Nc1c(Cl)cc(C(F)(C(F)(F)F)C(F)(F)C(F)(F)F)cc1Br` (stereo not shown) [B141], the pest or weed control at 200 ppm in the assay on Plutella xylostella, with Heliothis virescens and in the assay with Spodoptera littoralis was at least 80% throughout.
In the case of `COc1c(NC(=O)c2ccc(-c3ccccn3)s2)cccc1C(=O)Nc1c(Cl)cc(C(F)(C(F)(F)F)C(F)(F)C(F)(F)F)cc1Br` (stereo not shown) [B48], the pest or weed control at 200 ppm with Plutella xylostella, in the assay with Heliothis virescens and in the assay with Spodoptera littoralis was at least 80% each time.
Turning to `COc1c(NC(=O)c2ocnc2C)cccc1C(=O)Nc1c(Cl)cc(C(F)(C(F)(F)F)C(F)(F)C(F)(F)F)cc1Br` (stereo not shown) [B94], the pest or weed control at 200 ppm in the assay on Plutella xylostella, in the assay with Heliothis virescens and with Spodoptera littoralis was at least 80% each time.
For `COc1c(NC(=O)c2cc([N+](=O)[O-])ccc2F)cccc1C(=O)Nc1c(Cl)cc(C(F)(C(F)(F)F)C(F)(F)C(F)(F)F)cc1Br` (stereo not shown) [B148], the pest or weed control at 200 ppm in the assay with Plutella xylostella, in the assay with Heliothis virescens and in the assay on Spodoptera littoralis was at least 80% throughout.
As for `COc1c(NC(=O)c2ccco2)cccc1C(=O)Nc1c(Cl)cc(C(F)(C(F)(F)F)C(F)(F)C(F)(F)F)cc1Br` (stereo not shown) [B12], the pest or weed control at 200 ppm in the assay on Plutella xylostella, in the assay on Heliothis virescens and in the assay with Spodoptera littoralis was at least 80% each time.
For the compound `COc1c(NC(=O)c2cc([N+](=O)[O-])c(Cl)cc2F)cccc1C(=O)Nc1c(Cl)cc(C(F)(C(F)(F)F)C(F)(F)C(F)(F)F)cc1Br` (stereo not shown) [B102], the pest or weed control at 200 ppm in the assay with Plutella xylostella, in the assay on Heliothis virescens and with Spodoptera littoralis was at least 80% in each case.
On to `COc1c(NC(=O)c2cccc(C)c2C)cccc1C(=O)Nc1c(C)cc(C(F)(C(F)(F)F)C(F)(F)C(F)(F)F)cc1C` (stereo not shown) [F11], for which the pest or weed control at 200 ppm in the assay with Plutella xylostella is at least 80%.
Still for that read-out and setting: with `COc1c(NC(=O)c2sccc2Br)cccc1C(=O)Nc1c(Cl)cc(C(F)(C(F)(F)F)C(F)(F)C(F)(F)F)cc1Br` (stereo not shown) [B57] the figure was at least 80%.
Regarding `COc1c(NC(=O)c2ccc(S(C)(=O)=O)c(OC)c2Cl)cccc1C(=O)Nc1c(Cl)cc(C(F)(C(F)(F)F)C(F)(F)C(F)(F)F)cc1Br` (stereo not shown) [B114], the pest or weed control at 200 ppm with Plutella xylostella, in the assay with Heliothis virescens and in the assay with Spodoptera littoralis was at least 80% each time.
In the assay on Heliothis virescens, `COc1c(NC(=O)c2ccccc2OC(F)(F)F)cccc1C(=O)Nc1c(Cl)cc(C(F)(C(F)(F)F)C(F)(F)C(F)(F)F)cc1Cl` (stereo not shown) [C16] yielded a pest or weed control at 200 ppm of at least 80%.
In the assay on Spodoptera littoralis, `COc1c(NC(=O)c2cc(Cl)sc2Cl)cccc1C(=O)Nc1c(Cl)cc(C(F)(C(F)(F)F)C(F)(F)C(F)(F)F)cc1Br` (stereo not shown) [B186] yielded a pest or weed control at 200 ppm of at least 80%.
In the case of `COCc1nc(C)c(C(=O)Nc2cccc(C(=O)Nc3c(Cl)cc(C(F)(C(F)(F)F)C(F)(F)C(F)(F)F)cc3Br)c2OC)s1` (stereo not shown) [B95], the pest or weed control at 200 ppm in the assay on Plutella xylostella, in the assay with Heliothis virescens and in the assay on Spodoptera littoralis was at least 80% in each case.
With `CCc1cc(C(F)(C(F)(F)F)C(F)(F)C(F)(F)F)cc(C)c1NC(=O)c1cccc(NC(=O)c2ccc(Cl)s2)c1OC` (stereo not shown) [A21], the pest or weed control at 200 ppm in the assay with Plutella xylostella, in the assay with Heliothis virescens and in the assay with Spodoptera littoralis was at least 80% each time.
Compound `COc1c(NC(=O)c2cc(C(F)(F)F)ccc2F)cccc1C(=O)Nc1c(Cl)cc(C(F)(C(F)(F)F)C(F)(F)C(F)(F)F)cc1Br` (stereo not shown) [B24] displayed a pest or weed control at 200 ppm in the assay with Spodoptera littoralis of at least 80%.
As for `COc1c(NC(=O)c2ccco2)cccc1C(=O)Nc1c(C)cc(C(F)(C(F)(F)F)C(F)(F)C(F)(F)F)cc1C` (stereo not shown) [F4], the pest or weed control at 200 ppm in the assay with Plutella xylostella, in the assay on Heliothis virescens and with Spodoptera littoralis was at least 80% each time.
`COc1c(NC(=O)c2ccco2)cccc1C(=O)Nc1c(Cl)cc(C(F)(C(F)(F)F)C(F)(F)F)cc1Cl` [E10]: the pest or weed control at 200 ppm in the assay with Plutella xylostella, in the assay with Heliothis virescens and in the assay on Spodoptera littoralis was at least 80% throughout.
Take `COc1cccc(OC)c1C(=O)Nc1cccc(C(=O)Nc2c(Cl)cc(C(F)(C(F)(F)F)C(F)(F)C(F)(F)F)cc2Br)c1OC` (stereo not shown) [B164]: in the assay on Plutella xylostella, the pest or weed control at 200 ppm was at least 80%.
As for `COc1c(NC(=O)c2sc(Cl)nc2C)cccc1C(=O)Nc1c(Cl)cc(C(F)(C(F)(F)F)C(F)(F)C(F)(F)F)cc1Br` (stereo not shown) [B105], the pest or weed control at 200 ppm with Plutella xylostella and in the assay on Spodoptera littoralis was at least 80% throughout.
For the compound `COc1c(NC(=O)c2ncccn2)cccc1C(=O)Nc1c(Cl)cc(C(F)(C(F)(F)F)C(F)(F)C(F)(F)F)cc1Br` (stereo not shown) [B71], the pest or weed control at 200 ppm in the assay on Plutella xylostella and in the assay with Spodoptera littoralis was at least 80% throughout.
Take `COc1c(NC(=O)c2cn(C)nc2C(F)(F)F)cccc1C(=O)Nc1c(Cl)cc(C(F)(C(F)(F)F)C(F)(F)C(F)(F)F)cc1Br` (stereo not shown) [B152]: the pest or weed control at 200 ppm in the assay with Plutella xylostella, in the assay on Heliothis virescens and in the assay on Spodoptera littoralis was at least 80% throughout.
For `COc1ccccc1C(=O)Nc1cccc(C(=O)Nc2c(Cl)cc(C(F)(C(F)(F)F)C(F)(F)F)cc2Cl)c1OC` [E15], the pest or weed control at 200 ppm with Plutella xylostella, with Heliothis virescens and in the assay on Spodoptera littoralis was at least 80% throughout.
In turn, `COc1c(NC(=O)c2c(C)nn(C)c2Cl)cccc1C(=O)Nc1c(Cl)cc(C(F)(C(F)(F)F)C(F)(F)C(F)(F)F)cc1Br` (stereo not shown) [B142] returned a pest or weed control at 200 ppm with Spodoptera littoralis of at least 80%.
`COc1c(NC(=O)c2c(C)noc2C)cccc1C(=O)Nc1c(Cl)cc(C(F)(C(F)(F)F)C(F)(F)C(F)(F)F)cc1Br` (stereo not shown) [B157]: the pest or weed control at 200 ppm in the assay with Heliothis virescens and in the assay on Spodoptera littoralis was at least 80% each time.

The record behind these values is US20120295907A1, “INSECTICIDAL COMPOUNDS” (SYNGENTA CROP PROTECTION, LLC, priority 2009, published 2012).
